Reference: patent US20250049787A1, “TREATMENT FOR ACUTE MYELOID LEUKEMIA OR LYMPHOMA” (UNIVERSITY HEALTH NETWORK, priority 2021, published 2025)
Where a name gives a salt, the structure may show the parent alone.

Assays:
cell surface FLT3-ITD = test: Flow cytometry, cell surface FLT3-ITD in MV-4-11 cells; format: cell-based, human; conditions: 100 nM, 4 hours
Procedure: MV-4-11 cells were treated with 100 nM Compound (I) tartrate or DMSO control for 4 hours at 37° C. and 5% CO2 and stained with PE-FLT3 (Beckman Coulter, Cat. IM2234U) or an isotype control antibody and analyzed on a BD LSRFortessa II flow cytometry analyzer. Data were analyzed using FlowJo software and representative data are shown. […] Compound (I) tartrate treatment increases the cell surface expression of FLT3-ITD in MV-4-11 cells.

FLT3 (D835Y) = target: T1, FLT3 (D835Y) (Homo sapiens, UniProt P36888, D835Y); test: Radiometric HotSpot kinase assay, FLT3 (D835Y); format: biochemical; conditions: ATP 20 μM; peptide substrate 5 μM
T1 construct: purchased Reaction Biology Corp. (Malvern, PA, USA)
Procedure: Kinase IC50 values were determined by Reaction Biology Corp. (Malvern, PA, USA) in the Radiometric HotSpot™ Assay using recombinantly expressed kinase enzymes. Compound (I) was tested in a 10-dose IC50 curve in duplicate. Enzymes were tested at the Km [ATP] for each enzyme using the Reaction Biology binning structure. Kinase reactions were initiated by the addition of protein or peptide substrate and [γ-^33P]-adenosine triphosphate (ATP). Phosphorylated substrates were captured by spotting of the reaction mix on filter membranes, and enzymatic activity was quantified by liquid scintillation counting. Substrates and ATP concentrations are as follows: • FLT3: Peptide substrate, [EAIYAAPFAKKK], 5 μM: ATP 50 μM • FLT3-ITD (internal tandem duplication): Peptide substrate, [EAIYAAPFAKKK], 20 μM: ATP, 30 μM • FLT3 (D835Y): Peptide substrate, [EAIYAAPFAKKK], 5 μM: ATP 20 μM • TAK1: Casein, 1 mg/mL: ATP, 20 μM

[1] = test system: FLT3-ITD-expressing 32D cells (20 ng/ml mouse IL-3); test: Growth inhibition, 32D transfectants with mouse IL-3; format: cell-based; conditions: 32D transfectant FLT3-ITD
Procedure: Cell lines were obtained from American Type Culture Collection (ATCC) and maintained according to the supplier's instructions, and from Dr. Mark Minden (Princess Margaret Cancer Centre, Toronto, Canada). Short tandem repeat (STR) profiling was used to verify authenticity of the cell lines. Peripheral blood from healthy human donors was obtained from the Hematology Malignancy Tissue Bank at the University Health Network. Peripheral blood mononuclear cells (PBMC) were prepared from the blood by density gradient centrifugation using Ficoll-Paque PLUS by manufacturer's instructions (GE Healthcare Life Sciences). […] Compound (I) tartrate was prepared as a 10 mM stock solution in 100% DMSO. The stock solution was diluted with RPMI-1640 (Invitrogen) containing 10% FBS (fetal bovine serum) such that the final concentrations ranged from 300 fM to 300 μM. Aliquots (20 μL) from each concentration were overlaid to 180 μL of pre-seeded cells to achieve final concentrations of 30 fM to 30 μM. After 3 days, cell growth in each well was assessed by Alamar Blue assay reagent (Invitrogen). Raw fluorescence (λEM=590 nm) values were adjusted by subtracting the average of the baseline readings from untreated cells assessed one day after cell seeding. Relative cell growth was calculated by comparing to DMSO-treated cells. […]

Q: For `CN1CCN(c2ccc3nc(-c4c(N)c5ccsc5[nH]c4=O)[nH]c3c2)CC1` [Compound (I) tartrate, 4-amino-5-(6-(4-methylpiperazin-1-yl)-1H-benzo[d]imidazol-2-yl)thieno[2,3-b]pyridin-6(7H)-one], which “cell surface expression of FLT3-ITD” value (cell surface FLT3-ITD) is on record?
A: increases

Q: And the IC50 (FLT3 (D835Y))?
A: 0.023 nM

Q: What about the IC50 [1] of the same compound?
A: 1440 nM
